Assay results: patent US7427599B2, “Biologically active peptide comprising Tyrosyl-seryl-valine(YSV)” (CMS Peptides Patent Holding Company Limited, priority 2003, dated 2008)
Marks after values point to notes of the source that are not given here.

Tests used:
melanoma B16 = assay: Growth of C57BL/6 mice-transplanted melanoma B16; assay type: in vivo; details: 20 mg/kg/day intraperitoneal, 20 consecutive days
Procedure: B16 cells were maintained in RPMI-1640 medium with 10% FBS at 37° C., 5% CO2. Mouse B16 melanoma culture at log phase was adjusted to 2.5×10^6/ml with Hank's solution. 0.2 ml of this was subcutaneously injected to the right axilla of healthy C57 BL/6 mice to form the melanoma mice model. […] From the next day after the tumor implantation, the general conditions of the mice and the growth of the tumor were observed daily. On the next day after the last test substance administration, the tumors were extirpated and the weights of tumor were measured. […] The results were presented as arithmetic mean ±SD. Statistical analysis was performed using the ANOVA test of the SPSS software.

[1] = system: A549 human pulmonary carcinoma; assay: A549 human pulmonary carcinoma xenograft in nude mice; assay type: in vivo, BALB/c (nu/nu) athymic nude mice; details: 20 mg/kg/day i.p., 40 days
Procedure: Healthy BALB/c (nu/nu) athymic nude mice (SPF, 4-5 weeks old, weighting 18-22 g) were purchased from Shanghai Tumor Academe of China Medical Academy of Science. In the first experiment, female was used. In the second experiment, male was used.
Select A549 human pulmonary carcinoma xenografts of diameter longer than 1 cm with good growth on nude mice. Aseptically excise the tumor mass, cut into pieces of 2-4 mm^3 and submerged in RPMI1640. Pulmonary carcinoma nude mice model was prepared by transplanting the tumor mass hypodermally to the back of healthy nude mice near to the neck via an incision at the ventral thorax.
The nude mice bearing A549 xenografts were randomly divided into groups of: saline control (0.2 ml/day), YSV groups of different dosages, and Cy control (0.2 mg/kg/day). The test substances were dissolved in 0.2 ml saline and administered intraperitoneally to the mice starting from the day after the transplantation, once per day for 40 consecutive days.
The general condition of the mice was observed daily. The mice were weighed every 3-4 days and the volume of the tumor was measured:
V=(⅙)πXYZ, where X, Y, and Z were the diameters of the tumor on the 3 planes.
The day after the last injection, the tumors were excised, weighted, and the volume measured. The tumors were examined for signs of necrosis. Tumor inhibition index=(average tumor weight of saline group−average tumor weight of test group)/average tumor weight of saline group×100%)
Statistical analysis was performed with SPSS software using one-way ANOVA analysis.

O=P1(N(CCCl)CCCl)NCCCO1 (centres unmarked) [Cyclophosphamide, reference compound]
The Inhibition rate (%) (melanoma B16): 81.5%
Tumor weight (melanoma B16; saline 2.64 ± 0.68): 0.49 ± 0.68 g
Tumor inhibition index (%) ([1]; experiment 1, female nude mice): 39.8%
Tumor volume (cm^3) ([1]; experiment 1, female nude mice, saline 1.87 ± 1.10): 1.02 ± 0.47* cm^3
Tumor weight ([1]; experiment 1, female nude mice, saline 2.49 ± 1.02): 1.50 ± 0.75 g
Tumor inhibition index (%) ([1]; experiment 2, male nude mice): 51.9%
Tumor volume (cm^3) ([1]; experiment 2, male nude mice, saline 1.34 ± 0.69): 0.49 ± 0.34* cm^3
Tumor weight ([1]; experiment 2, male nude mice, saline 1.51 ± 0.79): 0.73 ± 0.42 g
